Data taken from patent US5565455A, “Method for treating substance abuse disorders” (priority 1992, dated 1996).
Where a name gives a salt, the structure may show the parent alone. Read-outs that look alike come from different tables or passages of the source.

Assays:
[1] = tested on: voluntary ethanol consumption in rats; conditions: cited from earlier work
[2] = tested on: 5-HT reuptake, synaptosomes from rat frontal cortex; test: Inhibition of reuptake of [3H-5-HT] by synaptosomes from rat frontal cortex; format: biochemical; conditions: method of Shank et al.
5-HT1A = biological target: T1, 5-HT1A (Homo sapiens, UniProt P08908); test: biochemical; format: binding
T1 sequence (P08908 1-422): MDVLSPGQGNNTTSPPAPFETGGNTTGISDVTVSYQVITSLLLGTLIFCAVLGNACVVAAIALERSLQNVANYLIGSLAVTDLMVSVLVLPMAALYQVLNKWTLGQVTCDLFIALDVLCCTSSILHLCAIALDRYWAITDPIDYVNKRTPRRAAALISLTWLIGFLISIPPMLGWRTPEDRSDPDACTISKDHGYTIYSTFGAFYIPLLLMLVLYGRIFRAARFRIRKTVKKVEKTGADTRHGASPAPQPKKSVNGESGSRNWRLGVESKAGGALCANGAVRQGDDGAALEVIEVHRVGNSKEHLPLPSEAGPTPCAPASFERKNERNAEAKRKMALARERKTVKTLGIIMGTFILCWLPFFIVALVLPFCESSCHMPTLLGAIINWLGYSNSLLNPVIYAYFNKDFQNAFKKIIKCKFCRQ

5-HT2 = 5-HT2 (Homo sapiens, UniProt P28223); test: Drug affinity for 5-HT2 receptor, radioligand 3H-ketanserin, cerebral cortex
5-HT2, sequence (P28223 whole entry, species assumed): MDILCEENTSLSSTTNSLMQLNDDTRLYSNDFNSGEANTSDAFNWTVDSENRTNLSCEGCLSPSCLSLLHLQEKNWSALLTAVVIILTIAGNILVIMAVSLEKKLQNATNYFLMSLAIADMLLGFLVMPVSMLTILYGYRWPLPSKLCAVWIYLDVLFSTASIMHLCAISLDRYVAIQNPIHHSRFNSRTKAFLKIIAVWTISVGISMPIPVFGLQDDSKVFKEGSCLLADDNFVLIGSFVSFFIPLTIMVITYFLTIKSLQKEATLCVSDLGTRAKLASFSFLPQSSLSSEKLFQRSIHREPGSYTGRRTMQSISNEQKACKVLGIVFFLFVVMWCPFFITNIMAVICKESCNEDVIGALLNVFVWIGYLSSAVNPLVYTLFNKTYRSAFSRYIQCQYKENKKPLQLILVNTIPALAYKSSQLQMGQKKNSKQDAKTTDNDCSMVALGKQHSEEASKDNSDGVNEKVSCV

[3] = tested on: consumption of alcohol by monkeys; conditions: cited from earlier work
[4] = tested on: alcohol-dependent individuals; conditions: cited from earlier work
[5] = tested on: Sprague-Dawley rats induced to drink alcohol chronically; test: Alcohol drinking in Sprague-Dawley rats induced by cyanamide injections; format: in vivo, rat
Method: To further illustrate the useful pharmacological properties of FG5893, the effect of FG5893 administered systemically was determined in Sprague-Dawley rats induced to drink alcohol chronically by a series of intraperitoneal injections of cyan-amide according to experimental procedures described previously (Critcher, E. C. and R. D. Myers, Alcohol 4:347-353, 1987). Intakes of food and body weights were recorded.
FG5893 in a dose of 0.5, 1.0 and 2.5 mg/kg was administered twice a day for three consecutive days. […] This finding is notable because drugs that attenuate the preference for alcohol consumed in a concentration of pharmacological consequence typically impair the ingestion of food.

[6] = clinical trial versus placebo in alcohol-dependent individuals
[7] = 0.5, 1.0 and 2.5 mg/kg twice a day for three consecutive days, all doses

In the case of `CCNC(=O)N1CCN(CCCC(c2ccc(F)cc2)c2ccc(F)cc2)CC1` [Amperozide], the “consumption of food and level of body weight” value ([1]; rat, in vivo) is given as “without affecting”, the “intake of alcohol in rats” value ([1]; rats) is given as “significantly attenuate” and the IC50 [2] is given as 320 nM. It also gave a Ki (5-HT1A) of 805 nM and a Ki (5-HT2) of 17 nM.
In the case of `O=C1CC2(CCCC2)CC(=O)N1CCCCN1CCN(c2ncccn2)CC1` [Buspirone], the “consumption of alcohol by monkeys” value [3] is given as “attenuate significantly”, the drop-out rate [4, 6] is given as “lower drop-out rate” and the signs of craving [4, 6] is given as “fewer signs of craving”.
For `COC(=O)c1cccnc1N1CCN(CCCC(c2ccc(F)cc2)c2ccc(F)cc2)CC1` [FG5893, 2-[4-[4,4-bis(4-fluorophenyl)butyl]-1-piperazinyl]-3-pyridinecarboxylic acid methyl ester dihydrochloride ethylat], the IC50 [2] was 80 nM, the “intake of alcohol, absolute g/kg” value [5, 7] was “significantly reduced” and the “proportion of alcohol to total fluid intake” value [5, 7] was “significantly reduced”. The “alcohol consumption after the injection sequence” value ([5]; 1.0 and 2.5 mg/kg doses, two 4-day tests immediately following the injection sequence and after a 40-day interval) was “continued to suppress alcohol consumption”, the body weights ([5]; during or after administration) was “Neither body weights nor intakes of food of the rats were affected” and the intakes of food ([5]; during or after administration) was “Neither body weights nor intakes of food of the rats were affected”. For the same molecule, the Ki (5-HT1A; Radioligand 3H-8-OH-DPAT, tissue hippocampus) was 0.7 nM and the Ki (5-HT2) was 4 nM.
For `CN(C)C/C=C(/c1ccc(Br)cc1)c1cccnc1` [Zimelidine], the “ingestion of food and alcohol” value ([1]; concomitantly) is listed as “attenuate”, the “voluntary ethanol consumption in rats” value ([1]; rats) is listed as “potent inhibitory effect” and the IC50 [2] is listed as 120 nM. For the same molecule, the “number of abstinent days” value ([4]; human trials) was “increase” and the “number of daily drinks” value ([4]; human trials) was “slight reduction”.
